# Data: publication PMC3898987 (Bioorganic & Medicinal Chemistry, 2013)
# Where a chain is given by its changes, count along the chain named.
# Key:
# [1] = biological target: T1, 5-HT3AB receptor, 5-HT3B subunit W90C (Homo sapiens, UniProt O95264+P46098, W83C); test: FlexStation membrane potential dye functional assay, HEK293 cells; conditions: 5-HT concentration-response, 5-HT3AB with 5-HT3B W90C
# T1 sequence (P46098 24-478): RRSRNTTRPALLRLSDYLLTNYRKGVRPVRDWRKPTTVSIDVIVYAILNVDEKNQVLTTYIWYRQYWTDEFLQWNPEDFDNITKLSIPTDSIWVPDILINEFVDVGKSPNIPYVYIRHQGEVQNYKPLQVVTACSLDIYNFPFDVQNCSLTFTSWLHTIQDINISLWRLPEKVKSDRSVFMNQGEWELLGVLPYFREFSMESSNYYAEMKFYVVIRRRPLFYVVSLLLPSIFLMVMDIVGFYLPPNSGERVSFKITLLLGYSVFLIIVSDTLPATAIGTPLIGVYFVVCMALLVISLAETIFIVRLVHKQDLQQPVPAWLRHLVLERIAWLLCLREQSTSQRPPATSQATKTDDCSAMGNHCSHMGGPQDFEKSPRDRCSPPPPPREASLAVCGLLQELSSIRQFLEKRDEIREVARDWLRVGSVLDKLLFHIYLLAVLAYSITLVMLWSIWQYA
# T1 sequence (O95264 22-441 W83C): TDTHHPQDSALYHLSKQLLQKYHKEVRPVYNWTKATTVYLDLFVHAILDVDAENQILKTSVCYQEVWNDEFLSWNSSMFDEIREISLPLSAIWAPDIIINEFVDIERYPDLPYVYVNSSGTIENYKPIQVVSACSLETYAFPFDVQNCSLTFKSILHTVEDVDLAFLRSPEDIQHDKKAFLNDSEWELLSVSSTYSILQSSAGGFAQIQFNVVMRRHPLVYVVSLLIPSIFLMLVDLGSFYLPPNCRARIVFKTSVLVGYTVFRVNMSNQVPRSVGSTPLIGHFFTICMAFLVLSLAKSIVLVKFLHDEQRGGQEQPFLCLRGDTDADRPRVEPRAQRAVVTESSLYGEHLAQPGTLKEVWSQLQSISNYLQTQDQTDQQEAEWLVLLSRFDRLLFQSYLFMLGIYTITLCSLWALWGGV
# Method: Human embryonic kidney (HEK) 293 cells were cultured on 90 mm tissue culture plates at 37 °C and 7% CO2 in a humidified atmosphere. They were grown in DMEM:F12 (Dulbecco’s Modified Eagle’s Medium/Nutrient Mix F12 (1:1)) with GlutaMAX I™ containing 10% fetal calf serum and passaged when confluent. […] For FlexStation assays, transfected cells were plated on 96-well plates and incubated 1–2 days before assay.
# (§1) Fluorometric studies were undertaken using a FlexStation® (Molecular Devices, Sunnyvale, CA, USA) as previously described.[11]
# (§2) Fluorescence was measured every 2 s for 200 s. […] Concentration–response and inhibition curves were obtained for each mutant, and the fluorescence values were normalized to the maximal response.
# [2] = biological target: T2, 5-HT3AB receptor, 5-HT3B subunit I183A (Homo sapiens, UniProt O95264+P46098, I176A); test: as above; conditions: 5-HT concentration-response, 5-HT3AB with 5-HT3B I183A
# T2 sequence (P46098 24-478): T1 sequence (P46098 24-478)
# T2 sequence (O95264 22-441 I176A): T1 sequence (O95264 22-441 W83C) with C62W, I155A
# Method: (§3) For FlexStation assays, transfected cells were plated on 96-well plates and incubated 1–2 days before assay.
# as §1, §2
# [3] = biological target: T3, 5-HT3AB receptor, 5-HT3B subunit Y143A (Homo sapiens, UniProt O95264+P46098, Y136A); test: as above; conditions: 5-HT concentration-response, 5-HT3AB with 5-HT3B Y143A
# T3 sequence (P46098 24-478): T1 sequence (P46098 24-478)
# T3 sequence (O95264 22-441 Y136A): T1 sequence (O95264 22-441 W83C) with C62W, Y115A
# Method: as §3, §1, §2
# 5-HT3A receptor F130Y = biological target: T4, 5-HT3A receptor F130Y (Homo sapiens, UniProt P46098, F125Y); test: radioligand saturation binding, transfected HEK293 membranes; conditions: [3H]-palonosetron saturation, 5-HT3A F130Y, 4 °C, 24 h
# T4 sequence (P46098 24-478 F125Y): T1 sequence (P46098 24-478) with F102Y
# Method: Human embryonic kidney (HEK) 293 cells were cultured on 90 mm tissue culture plates at 37 °C and 7% CO2 in a humidified atmosphere. They were grown in DMEM:F12 (Dulbecco’s Modified Eagle’s Medium/Nutrient Mix F12 (1:1)) with GlutaMAX I™ containing 10% fetal calf serum and passaged when confluent. For radioligand binding studies, cells in 90 mm dishes were transfected at 60–70% confluency using polyethyleneimine and incubated for 3–4 days before use. For FlexStation assays, transfected cells were plated on 96-well plates and incubated 1–2 days before assay. […]
# Eight-point binding assays were performed to produce saturation binding curves. […] Radioactive counts were measured using a Beckman LS6000SC liquid scintillation counter (Fullerton, California, USA).
# Data were analyzed by iterative curve fitting using GraphPad Prism v5 (San Diego, CA) according to the following equation: B=Bmax[L]^n/kdn+[L]^n where B is the amount of bound radioligand, Bmax is the maximum specific binding at equilibrium, [L] is the concentration of radioligand, Kd is the equilibrium dissociation constant of the radioligand, and n is the Hill coefficient.
compound,measurement,setting,value
"NCCc1c[nH]c2ccc(O)cc12 [5-HT, serotonin]",Hill Coefficient,[1],2.0 ± 0.4
same,Hill Coefficient,[2],1.2 ± 0.2
same,Hill Coefficient,[3],1.3 ± 0.2
O=C1c2cccc3c2[C@H](CCC3)CN1[C@@H]1CN2CCC1CC2 [Palonosetron],Kd,5-HT3A receptor F130Y,0.26 ± 0.09 nM
